Assays:
C. auris [1] = test: EUCAST antifungal MIC assay, drug alone and combined with hmAb 2G8; assay type: cell-based; conditions: drug alone
Protocol: To evaluate the susceptibility of C. auris to caspofungin, amphotericin B and their combination with hmAb 2G8, we followed the EUCAST antifungal MIC method (EUCAST E.DEF. 7.3). Antifungal drugs were purchased from Sigma-Aldrich.
The caspofungin and amphotericin B range concentrations analysed were reported in EUCAST document. Those concentrations were tested alone and in combination with 0.25, 2.5, 25 and 250 μg/ml of humanised antibody.
The plates microdilution and the yeast inoculum were prepared as reported in EUCAST document. The wells with 100 μl of 2X final antifungal drugs concentration in RPMI 2% G medium were inoculated with 100 μl (1-5×10^5 CFU/ml) of yeast suspension of C. auris. The monoclonal antibody was added to the samples of yeast suspension to test the combination drug-antibody. The plates were incubated at 37° C. for 24 and 48 hours and read after incubation at 405 nm. The assays were performed in triplicate.
As reported in EUCAST, echinocandins' MIC50 is the lowest drug concentration giving inhibition of≥50% of that of the drug-free control (dotted line). For amphotericin B, MIC50 is the same as for echinocandins while MIC90 is considered as the lowest concentration giving a growth inhibition of≥90% of that of the drug-free control (dotted bold line). […] At 48 hours (D), amphotericin B alone has its MIC50 and 90 at 1 μg/ml.

C. auris [2] = test: Time-kill curve, drug alone and combined with hmAb 2G8; assay type: cell-based
Text: To support and deepen the data coming from MIC assays, a time-kill curve was elaborated to evaluate how the hmAb 2G8 combined with caspofungin or amphotericin B could improve their basal activity on C. auris.

C. auris [3] = conditions: different C. auris strains, literature; cited from earlier work

C[C@@H]1[C@H](O)[C@@H](C)/C=C/C=C/C=C/C=C/C=C/C=C/C=C/[C@H](O[C@@H]2O[C@H](C)[C@@H](O)[C@H](N)[C@@H]2O)C[C@@H]2O[C@](O)(C[C@@H](O)C[C@@H](O)[C@H](O)CC[C@@H](O)C[C@@H](O)CC(=O)O[C@H]1C)C[C@H](O)[C@H]2C(=O)O [amphotericin B]
MIC50 (C. auris [1]; 24 hours): 0.5 µg/mL | MIC90 (C. auris [1]; 24 hours): 0.5 µg/mL | MIC50 (C. auris [1]; 48 hours): 1 µg/mL | MIC90 (C. auris [1]; 48 hours): 1 µg/mL | log growth decrease (time-kill curve) (C. auris [2]; AMB 0.03125 μg/ml, 0 h): 0.01 Log | log growth decrease (time-kill curve) (C. auris [2]; AMB 0.03125 μg/ml, 2 h): 0.05 Log | log growth decrease (time-kill curve) (C. auris [2]; AMB 0.03125 μg/ml, 4 h): −0.19 Log | log growth decrease (time-kill curve) (C. auris [2]; AMB 0.03125 μg/ml, 6 h): −0.62 Log | log growth decrease (time-kill curve) (C. auris [2]; AMB 0.03125 μg/ml, 8 h): −1.04 Log | log growth decrease (time-kill curve) (C. auris [2]; AMB 0.03125 μg/ml, 24 h): −2.65 Log | log growth decrease (time-kill curve) (C. auris [2]; AMB 0.03125 μg/ml, 48 h): −2.85 Log | log growth decrease (time-kill curve) (C. auris [2]; AMB 0.0625 μg/ml, 0 h): 0.00 Log | log growth decrease (time-kill curve) (C. auris [2]; AMB 0.0625 μg/ml, 2 h): 0.07 Log | log growth decrease (time-kill curve) (C. auris [2]; AMB 0.0625 μg/ml, 4 h): −0.14 Log | log growth decrease (time-kill curve) (C. auris [2]; AMB 0.0625 μg/ml, 6 h): −0.59 Log | log growth decrease (time-kill curve) (C. auris [2]; AMB 0.0625 μg/ml, 8 h): −0.97 Log | log growth decrease (time-kill curve) (C. auris [2]; AMB 0.0625 μg/ml, 24 h): −2.59 Log | log growth decrease (time-kill curve) (C. auris [2]; AMB 0.0625 μg/ml, 48 h): −2.57 Log | log growth decrease (time-kill curve) (C. auris [2]; AMB 0.125 μg/ml, 0 h): 0.01 Log | log growth decrease (time-kill curve) (C. auris [2]; AMB 0.125 μg/ml, 2 h): 0.11 Log | log growth decrease (time-kill curve) (C. auris [2]; AMB 0.125 μg/ml, 4 h): −0.07 Log | log growth decrease (time-kill curve) (C. auris [2]; AMB 0.125 μg/ml, 6 h): −0.42 Log | log growth decrease (time-kill curve) (C. auris [2]; AMB 0.125 μg/ml, 8 h): −0.80 Log | log growth decrease (time-kill curve) (C. auris [2]; AMB 0.125 μg/ml, 24 h): −2.28 Log | log growth decrease (time-kill curve) (C. auris [2]; AMB 0.125 μg/ml, 48 h): −2.44 Log | log growth decrease (time-kill curve) (C. auris [2]; AMB 0.25 μg/ml, 0 h): 0.07 Log | log growth decrease (time-kill curve) (C. auris [2]; AMB 0.25 μg/ml, 2 h): 0.10 Log | log growth decrease (time-kill curve) (C. auris [2]; AMB 0.25 μg/ml, 4 h): 0.02 Log | log growth decrease (time-kill curve) (C. auris [2]; AMB 0.25 μg/ml, 6 h): −0.02 Log | log growth decrease (time-kill curve) (C. auris [2]; AMB 0.25 μg/ml, 8 h): 0.02 Log | log growth decrease (time-kill curve) (C. auris [2]; AMB 0.25 μg/ml, 24 h): 0.19 Log | log growth decrease (time-kill curve) (C. auris [2]; AMB 0.25 μg/ml, 48 h): −2.13 Log | log growth decrease (time-kill curve) (C. auris [2]; AMB 0.5 μg/ml, 0 h): 0.05 Log | log growth decrease (time-kill curve) (C. auris [2]; AMB 0.5 μg/ml, 2 h): 0.21 Log | log growth decrease (time-kill curve) (C. auris [2]; AMB 0.5 μg/ml, 4 h): 0.41 Log | log growth decrease (time-kill curve) (C. auris [2]; AMB 0.5 μg/ml, 6 h): 0.86 Log | log growth decrease (time-kill curve) (C. auris [2]; AMB 0.5 μg/ml, 8 h): 1.95 Log | log growth decrease (time-kill curve) (C. auris [2]; AMB 0.5 μg/ml, 24 h): ≥3 Log | log growth decrease (time-kill curve) (C. auris [2]; AMB 0.5 μg/ml, 48 h): ≥3 Log | log growth decrease (time-kill curve) (C. auris [2]; AMB 1 μg/ml, 0 h): 0.05 Log | log growth decrease (time-kill curve) (C. auris [2]; AMB 1 μg/ml, 2 h): 1.77 Log | log growth decrease (time-kill curve) (C. auris [2]; AMB 1 μg/ml, 4 h): ≥3 Log | log growth decrease (time-kill curve) (C. auris [2]; AMB 1 μg/ml, 6 h): ≥3 Log | log growth decrease (time-kill curve) (C. auris [2]; AMB 1 μg/ml, 8 h): ≥3 Log | log growth decrease (time-kill curve) (C. auris [2]; AMB 1 μg/ml, 24 h): ≥3 Log | log growth decrease (time-kill curve) (C. auris [2]; AMB 1 μg/ml, 48 h): ≥3 Log | log growth decrease (time-kill curve) (C. auris [2]; AMB 2 μg/ml, 0 h): 0.05 Log | log growth decrease (time-kill curve) (C. auris [2]; AMB 2 μg/ml, 2 h): ≥3 Log | log growth decrease (time-kill curve) (C. auris [2]; AMB 2 μg/ml, 4 h): ≥3 Log | log growth decrease (time-kill curve) (C. auris [2]; AMB 2 μg/ml, 6 h): ≥3 Log | log growth decrease (time-kill curve) (C. auris [2]; AMB 2 μg/ml, 8 h): ≥3 Log | log growth decrease (time-kill curve) (C. auris [2]; AMB 2 μg/ml, 24 h): ≥3 Log | log growth decrease (time-kill curve) (C. auris [2]; AMB 2 μg/ml, 48 h): ≥3 Log | log growth decrease (time-kill curve) (C. auris [2]; AMB 4 μg/ml, 0 h): 0.06 Log | log growth decrease (time-kill curve) (C. auris [2]; AMB 4 μg/ml, 2 h): ≥3 Log | log growth decrease (time-kill curve) (C. auris [2]; AMB 4 μg/ml, 4 h): ≥3 Log | log growth decrease (time-kill curve) (C. auris [2]; AMB 4 μg/ml, 6 h): ≥3 Log | log growth decrease (time-kill curve) (C. auris [2]; AMB 4 μg/ml, 8 h): ≥3 Log | log growth decrease (time-kill curve) (C. auris [2]; AMB 4 μg/ml, 24 h): ≥3 Log | log growth decrease (time-kill curve) (C. auris [2]; AMB 4 μg/ml, 48 h): ≥3 Log | time at which fungicidal activity is obtained (C. auris [2]; time-kill curve, as efficiency starts decreasing): 24 h | MIC (C. auris [3]): ≥ 2 mg/L
